biological target: T1, Angiotensin II receptor (AT-1) type-1 (Rattus norvegicus, UniProt P29089+P25095); experiment: Antagonist activity at AT1 receptor in Rattus norvegicus (rat) liver
T1 sequence (P29089 whole entry): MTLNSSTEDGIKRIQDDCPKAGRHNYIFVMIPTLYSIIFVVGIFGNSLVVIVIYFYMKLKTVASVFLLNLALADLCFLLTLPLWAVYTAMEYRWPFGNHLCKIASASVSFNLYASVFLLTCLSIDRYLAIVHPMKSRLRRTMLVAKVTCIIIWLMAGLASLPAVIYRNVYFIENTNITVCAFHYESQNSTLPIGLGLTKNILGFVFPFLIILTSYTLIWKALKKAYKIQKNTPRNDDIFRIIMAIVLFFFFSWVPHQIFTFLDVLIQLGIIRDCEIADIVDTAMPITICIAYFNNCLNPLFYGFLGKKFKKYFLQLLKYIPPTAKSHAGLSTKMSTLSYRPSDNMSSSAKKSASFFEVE
T1 sequence (P25095 whole entry): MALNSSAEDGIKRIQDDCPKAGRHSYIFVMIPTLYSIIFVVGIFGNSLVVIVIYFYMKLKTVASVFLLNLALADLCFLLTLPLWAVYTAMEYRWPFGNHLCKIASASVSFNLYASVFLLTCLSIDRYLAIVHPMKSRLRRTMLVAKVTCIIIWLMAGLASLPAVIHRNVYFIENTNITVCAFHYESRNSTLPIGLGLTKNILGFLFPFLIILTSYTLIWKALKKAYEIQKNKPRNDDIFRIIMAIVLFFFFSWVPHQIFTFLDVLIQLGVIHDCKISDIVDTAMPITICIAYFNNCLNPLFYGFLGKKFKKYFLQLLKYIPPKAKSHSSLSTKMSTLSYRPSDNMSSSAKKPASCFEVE

Point of comparison: `CCCCn1nc(C)c(C(=O)O)c1Cc1ccc(-c2ccccc2S(=O)(=O)Nc2ccccc2)cc1`, pIC50 7.92. Against it:
- CCCCn1nc(C)c(C(=O)O)c1Cc1ccc(-c2ccccc2-c2nn[nH]n2)cc1 — higher, 8.567
- CCCn1nc(C(C)C)c(C(=O)O)c1Cc1ccc(-c2ccccc2NS(=O)(=O)C(F)(F)F)cc1 — lower, 7.13
- CCCCOC(=O)NS(=O)(=O)c1ccccc1-c1ccc(Cc2c(C(=O)O)cnn2CCCC)cc1 — lower, 7.522
- CCCn1nc(C2CC2)c(C(=O)O)c1Cc1ccc(-c2ccccc2S(=O)(=O)Nc2ccccc2)cc1 — within 0.2 log units, 7.744
- CCCn1nc(C2CC2)c(C(N)=O)c1Cc1ccc(-c2ccccc2S(=O)(=O)Nc2ccccc2)cc1 — higher, 8.13
- CCCn1nc(C(C)C)c(C(=O)O)c1Cc1ccc(-c2ccccc2C(=O)O)cc1 — lower, 6.886
- CCCCc1nn(CCC)c(Cc2ccc(-c3ccccc3-c3nnn[nH]3)cc2)c1C(=O)O — higher, 8.522
- Cc1nn(-c2ccccc2)c(Cc2ccc(-c3ccccc3-c3nn[nH]n3)cc2)c1C(=O)O — lower, 7.102

Point of comparison: `CCCn1nc(C2CC2)c(C(N)=O)c1Cc1ccc(-c2ccccc2S(=O)(=O)Nc2ccccc2)cc1`, IC50 7.4 nM. Against it:
- CCCn1nc(C(C)C)c(C(=O)O)c1Cc1ccc(-c2ccccc2NS(=O)(=O)C(F)(F)F)cc1 — 10-fold higher, 74 nM
- CCCCn1nc(C)c(C(=O)O)c1Cc1ccc(-c2ccccc2S(=O)(=O)Nc2ccccc2)cc1 — 1.6-fold higher, 12 nM
- CCCCOC(=O)NS(=O)(=O)c1ccccc1-c1ccc(Cc2c(C(=O)O)cnn2CCCC)cc1 — 1.8-fold higher, 13 nM
- CCCn1nc(C2CC2)c(C(=O)O)c1Cc1ccc(-c2ccccc2S(=O)(=O)Nc2ccccc2)cc1 — 2.4-fold higher, 18 nM
- CCCn1nc(C(C)C)c(C(=O)O)c1Cc1ccc(-c2ccccc2C(=O)O)cc1 — 18-fold higher, 130 nM
- CCCCc1nn(CCC)c(Cc2ccc(-c3ccccc3-c3nnn[nH]3)cc2)c1C(=O)O — 2.5-fold lower, 3 nM
